From paper PMC9708767, “Synthesis of Polymer Precursor 12-Oxododecenoic Acid Utilizing Recombinant Papaya Hydroperoxide Lyase in an Enzyme Cascade” (Applied Biochemistry and Biotechnology, 2022)

Legend:
[1] = molecular target: N-terminally truncated hydroperoxide lyase from Carica papaya (HPL_(CP-N)) (Carica papaya); assay: SEC; Superdex 200 Increase 10/300; 50 mM potassium phosphate buffer pH 7 with 0.5 M NaCl and 0.1% Triton X-100; calibrated with gel filtration markers of 29,000 to 700,000 Da; calculated mass compared with the predicted monomer mass
[2] = molecular target: HPLCP-N (Carica papaya, UniProt Z9RAA0G2V7); assay: photometric, decrease at […] nm, nonlinear regression; type: biochemical; conditions: 50 mM potassium phosphate pH 6, 1 M NaCl, 22 °C; 5-100 µM substrate; affinity-enriched enzyme
Chain of HPLCP-N (Z9RAA0G2V7 36-496 limits assumed): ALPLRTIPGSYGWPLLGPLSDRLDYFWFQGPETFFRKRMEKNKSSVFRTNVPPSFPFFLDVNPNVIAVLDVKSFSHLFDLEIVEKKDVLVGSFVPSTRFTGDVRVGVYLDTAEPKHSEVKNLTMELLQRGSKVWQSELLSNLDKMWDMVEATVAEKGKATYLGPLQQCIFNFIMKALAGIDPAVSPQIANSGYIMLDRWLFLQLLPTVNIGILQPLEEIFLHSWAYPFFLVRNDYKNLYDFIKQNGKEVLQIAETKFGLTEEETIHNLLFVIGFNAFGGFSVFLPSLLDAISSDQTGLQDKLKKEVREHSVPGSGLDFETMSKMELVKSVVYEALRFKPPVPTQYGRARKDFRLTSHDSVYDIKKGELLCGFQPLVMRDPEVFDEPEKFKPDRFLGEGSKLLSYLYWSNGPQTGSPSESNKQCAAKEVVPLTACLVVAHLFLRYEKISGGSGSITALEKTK

Row | Compound | stoichiometry N [1] | Km [2] [µM]
1 | N-terminally truncated hydroperoxide lyase from Carica papaya (HPL_(CP-N)) (enzyme) | 4 | 
2 | CCCCC[C@@H](/C=C/C=C\CCCCCCCC(=O)O)OO [13S-HPODE] |  | 140 ± 30
3 | CC/C=C\C[C@@H](/C=C/C=C\CCCCCCCC(=O)O)OO [13S-HPOTE] |  | 150 ± 40
